Results from patent US6441167B1, “Cinoxacin lanthanide chelates and their use as biomolecular probes” (SmithKline Beecham plc, priority 1998, dated 2002).

Experiments:
[1] = Excitation and emission spectra and time resolved fluorescence decays of Europium chelates; assay type: physicochemical
Experimental: Below are some typical excitation and emission spectra, alone with time resolved fluorescence decays for Europium chelates of this invention. All spectra and decay measurements were recorded on an Amino Bowman Spectrophotometer (model AB2), with a time resolution of 50 us.
The characteristic narrow emission bands of europium is observed at around 614 nm. The excitation spectrum for the 614 nm emission band peaks at 355 nm, and at least 50% of this intensity is achieved with excitation wavelengths up to 375 nm.
As with the vast majority of fluorescence compounds, the sensitiser group itself has a very short fluorescence lifetime. […] However, as is clearly shown by the decay traces the fluorescence of the Eu^3+ incorporated in the chelate (at 614 nm) has a characteristically long lifetime that enables a time-resolved discrimination between the Eu-containing chelate and other fluorescent compounds. The Eu fluorescence lifetime was fitted with a single exponential fit giving a lifetime of 633 us.

[2] = Time resolved fluorescence signal of streptavidin conjugate (Wallac Victor); assay type: physicochemical; conditions: 50 nM in 100 uL; 400 us delay, 400 us read, cycle time 1000 us
Experimental: The reaction mixtures (549 ul) were then desalted into phosphate buffered saline containing 0.05% Tween 20 (PBS/Tween, Sigma) and 500 ul fractions were collected and assayed for protein content (Coomassie Blue Reagent, Biorad). The concentration of the pooled fractions (2 ml, 14 uM) was determined by Coomassie staining using streptavidin as a standard. […] 50 nM Cin-DTPA-SA gave 10,000 counts per second in 100 uL using these conditions. Improved labelling conditions yielding brighter conjugates, were obtained by freshly dissolving the Cin-DTPA-APA-chlorotriazine in 100% DMSO, increasing the pH of the reaction mixture to 9.0 in Bicarbonate buffer, and increasing the reaction time to approximately 16 hours at 4° C.

Cy5-labelled peptides = assay: Time resolved fluorescence resonance energy transfer from Cin-DTPA-SA to Cy5-labelled peptide; conditions: 100 nM Cin-DTPA-SA; saturating concentrations of Cy5-peptide; λex=340 nm
Experimental: Cin-DTPA-SA (100 nM) in PBS/Tween was mixed with increasing concentrations (0.1-1000 nM) of N-Succ-(Cy5-NH-K)AERAQAGVVNASSRLAE(K-NH-Biotin)-CO2H (where underlined letters refer to single amino acid codes) prepared by reaction of the corresponding unlabelled peptide with the N-hydroxysuccinimide esters of biotin and Cy5 (Amersham). After 30 minutes incubation at room temperature, the fluorescence intensity of the sample (λex=340 nm, λem=615 nm or 664 nm) was determined using a time gate of 400 us, 400 us read time, 1000 us cycle time for europium (615 nm) fluorescence and a time gate of 70 us, 200 us read time, 1000 us cycle time for Cy5 (664 nm) fluorescence. The 615 nm fluorescence decreased in a peptide concentration dependent manner by 62-67% at saturating concentrations of Cy5-peptide whilst the 664 nm fluorescence increased in a saturable manner from 1000 counts/second to 8,000 counts/second at saturating concentration of peptide. […] In addition, titration of 10 nM Cin-DTPA-SA with biotinylated allophycocyanin (Bt-APC, 0.5-500 nM, Sigma) in PBS/Tween was associated with an increase in the fluorescence signal at 664 nm from 1000 counts/second to 3,500 counts/second at 500 nM Bt-APC, again indicating energy transfer from the chelate to the acceptor.
The Eu^3+ fluorescence decreases and the Cy5 fluorescence increases as the Cy5-labelled peptide is titrated in. […]

Molecule: CCn1nc(C(=O)NCCNC(=O)CN(CCN(CCN(CC(=O)O)CC(=O)O)CC(=O)O)CC(=O)O)c(=O)c2cc3c(cc21)OCO3 [Cinoxacin-DTPA]
- fluorescence lifetime of the chromophore ([1]; at 421 nm, time resolution 50 us): too short to be reliably detected
- Eu fluorescence lifetime ([1]; at 614 nm, single exponential fit): 633 us
- emission bands of europium ([1]; in the presence of Eu^3+): around 614 nm
- excitation spectrum peak for the 614 nm emission band ([1]; in the presence of Eu^3+): 355 nm
- excitation wavelengths at which at least 50% of peak intensity is achieved ([1]; in the presence of Eu^3+, 614 nm emission): up to 375 nm

Molecule: Cin-DTPA-SA: streptavidin labelled with Cinoxacin-DTPA-APA-chlorotriazene (D5) and loaded with Eu^3+
- time resolved fluorescence signal [2]: 10,000 counts per second
- decrease of 615 nm fluorescence (Cy5-labelled peptides): 62-67%

Molecule: Cinoxacin-DTPA-Cinoxacin
- decay of the chromophore ([1]; at 430 nm, in the presence of Eu^3+): too fast for detection
